Like-named read-outs stand apart in the source and are kept apart here. *1 amine or outer side, *2 acyl side, *3 side chain or, on linkers, in order; H or OH if unused. Where a SMILES comes first, the peptide text is derived from it. Bridges are numbered along the chain shown (N, C = ends). [ ]: non-standard residue; d: D form. The star is where a group is joined. hPhe(3,5-F2-4-CF3) = N[C@@H](CCc1cc(F)c(C(F)(F)F)c(F)c1)C(=O)O; hPhe(3-Cl-4-CF3) = N[C@@H](CCc1ccc(C(F)(F)F)c(Cl)c1)C(=O)O; NPrPhe(4-CF3) = CCCN[C@@H](Cc1ccc(C(F)(F)F)cc1)C(=O)O; X13 = O=C([C@@H](N[*:1])C1CC(F)(F)C1)[*:2]; NMeGly(cPent) = CN[C@H](C(=O)O)C1CCCC1; NMeD = CN[C@@H](CC(=O)O)C(=O)O; NMeL = CN[C@@H](CC(C)C)C(=O)O; Morpholide = C1CN(*)CCO1; NMeA = CN[C@@H](C)C(=O)O; Piperidide = C1CCN(*)CC1; Ac5c = NC1(C(=O)O)CCCC1; Aze = O=C(O)[C@@H]1CCN1; Sar = CNCC(=O)O
Experiments:
[1] = biological target: GDP-bound KRAS wild-type protein (Homo sapiens, UniProt P01116); experiment: Binding to KRAS by surface plasmon resonance (SPR), Single Cycle Kinetics; conditions: GDP-bound KRAS wild-type protein, read-out: KRAS KD
Sequence of GDP-bound KRAS wild-type protein (P01116 whole entry): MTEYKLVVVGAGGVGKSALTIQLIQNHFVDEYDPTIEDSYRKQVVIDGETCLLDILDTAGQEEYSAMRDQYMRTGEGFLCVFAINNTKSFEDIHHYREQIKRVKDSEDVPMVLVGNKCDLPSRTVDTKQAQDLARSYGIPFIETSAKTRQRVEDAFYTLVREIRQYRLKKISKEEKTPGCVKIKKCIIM

[2] = biological target: GDP-bound HRAS wild-type protein (Homo sapiens, UniProt P01112); experiment: Binding to HRAS by surface plasmon resonance (SPR), Single Cycle Kinetics; conditions: for HRAS/KRAS (ratio of KD value for HRAS to KD value for KRAS) / HRAS/KRAS (ratio of KD value with respect to HRAS to KD value with respect to KRAS): SPR, GDP-bound HRAS wild-type protein vs GDP-bound KRAS wild-type protein
Sequence of GDP-bound HRAS wild-type protein (P01112 whole entry): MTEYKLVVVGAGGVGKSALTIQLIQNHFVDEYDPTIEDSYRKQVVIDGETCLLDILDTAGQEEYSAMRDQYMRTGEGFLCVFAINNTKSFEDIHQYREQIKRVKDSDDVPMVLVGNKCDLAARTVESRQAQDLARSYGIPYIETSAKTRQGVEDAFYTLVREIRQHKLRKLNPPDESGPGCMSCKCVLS

[3] = biological target: GDP-bound NRAS wild-type protein (Homo sapiens, UniProt P01111); experiment: Binding to NRAS by surface plasmon resonance (SPR), Single Cycle Kinetics; conditions: for NRAS/KRAS (ratio of KD value for NRAS to KD value for KRAS) / NRAS/KRAS (ratio of KD value with respect to NRAS to KD value with respect to KRAS): SPR, GDP-bound NRAS wild-type protein vs GDP-bound KRAS wild-type protein
Sequence of GDP-bound NRAS wild-type protein (P01111 whole entry): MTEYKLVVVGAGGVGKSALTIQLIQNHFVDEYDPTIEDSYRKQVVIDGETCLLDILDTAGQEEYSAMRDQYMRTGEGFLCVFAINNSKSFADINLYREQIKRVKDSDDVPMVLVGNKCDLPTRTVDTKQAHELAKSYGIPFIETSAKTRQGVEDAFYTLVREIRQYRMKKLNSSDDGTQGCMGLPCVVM

[4] = SPR Single Cycle Kinetics, 1:1 binding model

Row | Structure (SMILES) | Kd ([1]; SPR, Single Cycle Kinetics) | HRAS/KRAS (ratio of KD value for HRAS to KD value for KRAS) [2] | NRAS/KRAS (ratio of KD value for NRAS to KD value for KRAS) [3] | Kd [1, 4] | HRAS/KRAS (ratio of KD value with respect to HRAS to KD value with respect to KRAS) [2] | NRAS/KRAS (ratio of KD value with respect to NRAS to KD value with respect to KRAS) [3] | other results
1 | CCO[C@@H]1C[C@H]2C(=O)NC3(CC(C)(C)C3)C(=O)N(C)[C@@H](C3CCCC3)C(=O)N(C)[C@H](C(=O)N3CCOCC3)CC(=O)N(C)[C@@H](COC)C(=O)N[C@@H]([C@@H](C)CC)C(=O)N(C)CC(=O)N(C)[C@H]3CCCCCN(C3=O)[C@@H](Cc3ccc(C(F)(F)F)cc3)C(=O)N(C)CC(=O)N[C@@H](CCc3cc(F)c(C(F)(F)F)c(F)c3)C(=O)N2C1 [PP0844] | 1200 pM | B (a compound having 3 or more and less than 10 is denoted as B) | B (a compound having 3 or more and less than 10 is denoted as B) |  |  |  | 
2 | CCO[C@@H]1C[C@H]2C(=O)NC3(CCC3)C(=O)N(C)[C@@H](C3CCCC3)C(=O)N(C)[C@H](C(=O)N3CCOCC3)CC(=O)N(C)[C@@H](CC(C)C)C(=O)N[C@@H]([C@@H](C)CC)C(=O)N(C)CC(=O)N(C)[C@H]3CCCCCN(C3=O)[C@@H](Cc3ccc(F)cc3Cl)C(=O)N(C)CC(=O)N[C@@H](CCc3cc(F)c(C(F)(F)F)c(F)c3)C(=O)N2C1 [PP0918] | 400 pM | B (a compound having 3 or more and less than 10 is denoted as B) | B (a compound having 3 or more and less than 10 is denoted as B) |  |  |  | 
3 | CC[C@H](C)[C@@H]1NC(=O)[C@@H]2CCC/C=C/c3ccc(cc3)C[C@@H](C(=O)N(C)CC(=O)N[C@@H](CCc3ccc(Cl)c(Cl)c3)C(=O)N3C[C@H](OC4CCC4)C[C@H]3C(=O)NC3(CC(C)(C)C3)C(=O)N(C)[C@@H](C3CCCC3)C(=O)N(C)[C@H](C(=O)N3CCCC3)CC(=O)N2C)N2CC/C=C\C[C@@H](C2=O)N(C)C(=O)CN(C)C1=O [PP3053] | 160 pM | A (a compound having 10 or more and less than 20 is denoted as A) | A (a compound having 10 or more and less than 20 is denoted as A) |  |  |  | 
4 | CCC[C@H]1C(=O)N[C@@H]([C@@H](C)CC)C(=O)N(C2CC2)CC(=O)N(C)[C@H]2C/C=C\CCN(C2=O)[C@@H](Cc2ccc(C)cc2)C(=O)N(C)CC(=O)N[C@@H](CCc2ccc(C(F)(F)F)c(OC)c2)C(=O)N2C[C@H](OCC)C[C@H]2C(=O)NC2(CC(C)(C)C2)C(=O)N(C)[C@@H](CC2CC2)C(=O)N(C)[C@H](C(=O)N(C)C)CC(=O)N1C [PP2803] |  |  |  | 5900 pM |  |  | HRAS/KRAS (ratio of KD value with respect to GDP-bound HRAS wild-type protein to KD value with respect to KRAS) ([2]; SPR KD ratio HRAS/KRAS, class symbols): A (a compound having 10 or more and less than 20 is denoted as A); NRAS/KRAS (ratio of KD value with respect to GDP-bound NRAS wild-type protein to KD value with respect to KRAS) ([3]; SPR KD ratio NRAS/KRAS, class symbols): A (a compound having 10 or more and less than 20 is denoted as A)
5 | CC[C@H](C)[C@@H]1NC(=O)[C@H](CC(C)C)N(C)C(=O)C[C@@H](C(=O)N2CCOCC2)N(C)C(=O)[C@H](C2CCCC2)N(C)C(=O)C2(CCC2)NC(=O)[C@@H]2CCCN2C(=O)[C@H](CCc2cc(F)c(C(F)(F)F)c(F)c2)NC(=O)CN(C)C(=O)[C@H](Cc2ccc(C(F)(F)F)cc2)N2CCCCC[C@@H](C2=O)N(C)C(=O)CN(C)C1=O [PP0497] |  |  |  | 850 pM | B (a compound having 3 or more and less than 10 is denoted as B) | B (a compound having 3 or more and less than 10 is denoted as B) | 
6 | CC[C@H](C)[C@@H]1NC(=O)[C@H](CC(C)C)N(C)C(=O)C[C@@H](C(=O)N(C)C)N(C)C(=O)[C@H](C2CCCC2)N(C)C(=O)C2(CCCC2)NC(=O)[C@@H]2CCCN2C(=O)[C@H](CCc2ccc(C(F)(F)F)c(Cl)c2)NC(=O)CN(C)C(=O)[C@H](Cc2ccc(C(F)(F)F)cc2)N2CC/C=C\COC[C@@H](C2=O)N(C)C(=O)CN(C)C1=O [PP0622] |  |  |  | 11000 pM | B (a compound having 3 or more and less than 10 is denoted as B) | B (a compound having 3 or more and less than 10 is denoted as B) | 
7 | CCO[C@@H]1C[C@H]2C(=O)NC3(CC(C)(C)C3)C(=O)N(C)[C@@H](C(CC)CC)C(=O)N(C)[C@H](C(=O)N(C)C)CC(=O)N(C)[C@@H](COC)C(=O)N[C@@H]([C@@H](C)CC)C(=O)N(C)CC(=O)N(C)[C@H]3C/C=C\CCN(C3=O)[C@@H](Cc3ccc(C(F)(F)F)cc3)C(=O)N(C)CC(=O)N[C@@H](CCc3cc(F)c(C(F)(F)F)c(F)c3)C(=O)N2C1 [PP2121] | 1500 pM | A (a compound having 10 or more and less than 20 is denoted as A) | AA (a compound having 20 or more is denoted as AA) |  |  |  | 
8 | CCO[C@@H]1C[C@H]2C(=O)N(C)C3(CCC3)C(=O)N(C)[C@@H](C(CC)CC)C(=O)N(C)[C@H](C(=O)N(C)C)CC(=O)N(C)[C@@H](COC)C(=O)N[C@@H]([C@@H](C)CC)C(=O)N(C3CC3)CC(=O)N(C)[C@H]3C/C=C\CCN(C3=O)[C@@H](CC3CCCCC3)C(=O)N(C)CC(=O)N[C@@H](CCc3ccc(C(F)(F)F)c(OC)c3)C(=O)N2C1 [PP2339] | 2600 pM | A (a compound having 10 or more and less than 20 is denoted as A) | A (a compound having 10 or more and less than 20 is denoted as A) |  |  |  | 
9 | CC[C@H](C)[C@@H]1NC(=O)[C@H](CC(C)C)N(C)C(=O)C[C@@H](C(=O)N2CCOCC2)N(C)C(=O)[C@H](C2CCCC2)N(C)C(=O)C2(CCC2)NC(=O)[C@@H]2CCCN2C(=O)[C@H](CCc2ccc(C(F)(F)F)c(Cl)c2)NC(=O)CN(C)C(=O)[C@H](Cc2ccc(F)cc2)N2CCCCC[C@@H](C2=O)N(C)C(=O)CN(C)C1=O [PP0967] | 330 pM | B (a compound having 3 or more and less than 10 is denoted as B) | B (a compound having 3 or more and less than 10 is denoted as B) |  |  |  | 
10 | CCCN1C(=O)[C@@H]2CCN2C(=O)[C@H](C)N(C)C(=O)[C@H]([C@@H](C)CC)NC(=O)[C@H](CC(C)C)N(C)C(=O)C[C@@H](C(=O)N2CCCCC2)N(C)C(=O)[C@H](C2CCCC2)N(C)C(=O)C2(CCCC2)NC(=O)[C@@H]2CCCN2C(=O)[C@H](CCc2ccc(C(F)(F)F)c(Cl)c2)NC(=O)CN(C)C(=O)[C@@H]1Cc1ccc(C(F)(F)F)cc1 [PP0180] ([NMeL]I[NMeA][Aze][NPrPhe(4-CF3)][Sar][hPhe(3-Cl-4-CF3)]P[Ac5c][NMeGly(cPent)][NMeD]-Piperidide; lactam N-11) |  | C (A compound having a KD ratio of 0.1 or more and less than 3 is denoted as C) | C (A compound having a KD ratio of 0.1 or more and less than 3 is denoted as C) | 720 pM |  |  | 
11 | CCCN1C(=O)CN(C)C(=O)CN(C)C(=O)[C@H](C2CC(F)(F)C2)NC(=O)[C@H](CC(C)C)N(C)C(=O)C[C@@H](C(=O)N2CCOCC2)N(C)C(=O)[C@H](C2CCCC2)N(C)C(=O)C2(CCCC2)NC(=O)[C@@H]2CCCN2C(=O)[C@H](CCc2cc(F)c(C(F)(F)F)c(F)c2)NC(=O)CN(C)C(=O)[C@@H]1Cc1ccc(C(F)(F)F)cc1 [PP0769] ([NMeL][X13][Sar][Sar][NPrPhe(4-CF3)][Sar][hPhe(3,5-F2-4-CF3)]P[Ac5c][NMeGly(cPent)][NMeD]-Morpholide; lactam N-11) |  |  |  | 210 pM | C (A compound having a KD ratio of 0.1 or more and less than 3 is denoted as C) | B (a compound having 3 or more and less than 10 is denoted as B) | 
12 | CC[C@H](C)[C@@H]1NC(=O)[C@H](CC(C)C)N(C)C(=O)C[C@@H](C(=O)N2CCOCC2)N(C)C(=O)[C@H](C2CCCC2)N(C)C(=O)C2(CCC2)NC(=O)[C@@H]2CC(F)(F)CN2C(=O)[C@H](CCc2cc(F)c(C(F)(F)F)c(F)c2)NC(=O)CN(C)C(=O)[C@H](Cc2ccc(C(F)(F)F)cc2)N2CCCCC[C@@H](C2=O)N(C)C(=O)CN(C)C1=O [PP0464] |  |  |  | 920 pM | B (a compound having 3 or more and less than 10 is denoted as B) | B (a compound having 3 or more and less than 10 is denoted as B) | 
13 | CC[C@H](C)[C@@H]1NC(=O)[C@H](CC2CC2)N(C)C(=O)C[C@@H](C(=O)N2CCCC2)N(C)C(=O)[C@H](C2CCCC2)N(C)C(=O)C2(CCC2)NC(=O)[C@@H]2C[C@H](C)CN2C(=O)[C@H](CCc2cc(F)c(C(F)(F)F)c(F)c2)NC(=O)CN(C)C(=O)[C@H](Cc2ccc(C(F)(F)F)cc2)N2CC/C=C\C[C@@H](C2=O)N(C)C(=O)CN(C)C1=O [PP1510, (2S,8S,12S,14S,20S,23S,27S,30S,36S,38Z)-20-cyclopentyl-27-(cyclopropylmethyl)-8-[2-[3,5-difluoro-4-(trifluoromethyl)phenyl]ethyl]-4,12,19,22,26,32,35-heptamethyl-30-[(1S)-1-methylpropyl]-23-(pyrrolidine-1-carbonyl)-2-[[4-(trifluoromethyl)phenyl]methyl]spiro[1,4,7,10,16,19,22,26,29,32,35-undecazatricyclo[34.5.1.0^10,14]dotetracont-38-ene-17,1′-cyclobutane]-3,6,9,15,18,21,25,28,31,34,42-undecone] |  |  |  |  |  |  | Kd ([1]; SPR, Single Cycle Kinetics, 1:1 binding model): 110 pM; HRAS/KRAS (ratio of KD value for HRAS to KD value for KRAS) ([2]; KD ratio class): A (a compound having 10 or more and less than 20 is denoted as A); NRAS/KRAS (ratio of KD value for NRAS to KD value for KRAS) ([3]; KD ratio class): AA (a compound having 20 or more is denoted as AA)

Reference: patent US20240158446A1, “CYCLIC COMPOUND HAVING SELECTIVE INHIBITORY ACTION ON KRAS OVER HRAS AND NRAS” (CHUGAI SEIYAKU KABUSHIKI KAISHA, priority 2021, published 2024)
